Structures are written as SMILES. ≈ marks a conversion by molar mass, not a printed value. Where “and” joins values, the source holds several entries; their conditions need not be identical. Equal entries are not always repeated. A value given as a limit tells only on which side of the number the result lay.

The results in this text go back to DBAASP.

Among the test systems are Shigella flexneri; Streptococcus agalactiae; Staphylococcus aureus; Streptococcus sanguinis; Escherichia coli ML-35; Escherichia coli D21; Bacillus megaterium Bm11.
What all share (test): ≥ marks a high value that may be exact or a test limit, other limits are often not marked, values filed in µg/mL are converted to µM
Assay [1] concerns Bacillus subtilis ATCC 6633.
For assay [2], the system named is Candida albicans JLC 30364.
Assay [3] relates to Pseudomonas aeruginosa 5167.
Assay [4] has as its system Pseudomonas aeruginosa 8600.
Assay [5] relates to Pseudomonas aeruginosa ATCC 27853.
In assay [6] the test system is Pseudomonas aeruginosa 1570.
Assay [7] relates to Pseudomonas aeruginosa DFU3.
The test system of assay [8] is Mycobacterium tuberculosis.
The subject of assay [9] is Staphylococcus epidermidis SAM 0020.
Assay [10] deals with Escherichia coli ATCC 11775.
Assay [11] deals with Mycobacterium tuberculosis H37Rv.
Assay [12] deals with Enterococcus faecalis ATCC 19433.
Assay [13] deals with Salmonella enterica subsp. enterica serovar Typhi ATCC 6399.
The test system of assay [14] is Pseudomonas aeruginosa ATCC 10145.
Assay [15] relates to Bacillus subtilis ATCC 6051.
For assay [16], the system named is Staphylococcus aureus IAM 1098.
Assay [17] concerns Candida albicans ATCC 18804.
For assay [18], the system named is Listeria monocytogenes ATCC 7644.
Assay [19] deals with Staphylococcus aureus ATCC 29213.
Assay [20] relates to Listeria monocytogenes EGD.
Assay [21] deals with Escherichia coli ATCC 25922.
The test system of assay [22] is Staphylococcus aureus ATCC 25923.
In assay [23] the test system is Salmonella enterica subsp. enterica serovar Typhimurium ATCC 14028.
Assay [24] deals with Serratia marcescens ATCC 8100.
The subject of assay [25] is Staphylococcus epidermidis ATCC 12228.
Assay [26] has as its system Pseudomonas aeruginosa 4007.
The subject of assay [27] is Escherichia coli CCARM 1238.
The test system of assay [28] is Staphylococcus aureus CCARM 3090.
For assay [29], the system named is Pseudomonas aeruginosa 4891.
The subject of assay [30] is Staphylococcus aureus CCARM 3518.
The test system of assay [31] is Escherichia coli CCARM 1229.
In assay [32] the test system is Candida albicans KCTC 7270.
Assay [33] concerns Trichosporon beigelii KCTC 7707.

In the case of `CC(=O)N[C@@H](Cc1ccccc1)C(=O)N[C@@H](CCCCN)C(=O)N[C@@H](CCCCN)C(=O)N[C@@H](CC(C)C)C(=O)N[C@@H](CCCCN)C(=O)N[C@@H](CCCCN)C(=O)N[C@@H](CC(C)C)C(=O)N[C@@H](Cc1ccccc1)C(=O)N[C@@H](CO)C(=O)N[C@@H](CCCCN)C(=O)N[C@@H](CC(C)C)C(=O)N[C@@H](Cc1c[nH]c2ccccc12)C(=O)N[C@@H](CC(N)=O)C(=O)N[C@@H](Cc1c[nH]c2ccccc12)C(=O)N[C@@H](CCCCN)C(N)=O` [FKKLKKLFSKLWNWK], the minimal inhibitory concentration (MIC) was 1.6 µM and 4 µM in [1]; at least 32 µM in assay [2].
In the case of `CC(C)C[C@H](NC(=O)[C@H](CC(C)C)NC(=O)[C@H](CCCCN)NC(=O)[C@H](CCCCN)NC(=O)[C@H](CC(C)C)NC(=O)[C@H](CC(C)C)NC(=O)[C@H](CCCCN)NC(=O)[C@H](C)NC(=O)[C@@H](N)Cc1ccccc1)C(N)=O` [FAKLLKKLL], the minimum inhibitory concentration (MIC) in [3] was at least 59.6 µM; in assay [4], 5.27 µM (≈ 5.65 µg/mL); in assay [5], 7.45 µM and 14.9 µM; in assay [6] it was 21.1 µM (≈ 22.6 µg/mL).
In the case of `CC[C@H](C)[C@H](NC(=O)[C@H](CC(C)C)NC(=O)[C@H](CCCCN)NC(=O)[C@H](CC(C)C)NC(=O)[C@H](C)NC(=O)CNC(=O)[C@H](CCCCN)NC(=O)[C@H](C)NC(=O)[C@H](CC(C)C)NC(=O)[C@H](C)NC(=O)CNC(=O)[C@H](Cc1c[nH]c2ccccc12)NC(=O)[C@@H](N)Cc1ccccc1)C(=O)N1CCC[C@H]1C(=O)N[C@@H](CO)C(=O)N[C@@H](CC(C)C)C(=O)N[C@@H](Cc1ccccc1)C(=O)N[C@@H](CO)C(=O)N[C@@H](CO)C(=O)N[C@@H](Cc1ccccc1)C(=O)N[C@@H](CO)C(=O)N[C@@H](CCCCN)C(=O)N[C@@H](CCCCN)C(=O)N[C@@H](CC(=O)O)C(=O)O` [FWGALAKGALKLIPSLFSSFSKKD], the minimal inhibitory concentration (MIC) in assay [7] was 18.8 µM and 25 µM; in [8], at least 33.1 µM; in [9], 4.8 µM (≈ 12.5 µg/mL); in the assay on Shigella flexneri it was at least 37.5 µM; in the assay with Streptococcus agalactiae, 18.8 µM (≈ 49.1 µg/mL); in [10] it was 19.1 µM (≈ 49.9 µg/mL). Also, the minimum inhibitory concentration (MIC) in assay [11] was 22.1 µM (≈ 57.7 µg/mL); in assay [12], 2.4 µM (≈ 6.27 µg/mL); in [1] it was at least 37.5 µM; in assay [13], at least 37.5 µM; in assay [14], at least 38.2 µM; in [15], 4.8 µM (≈ 12.5 µg/mL). Moreover, the minimal inhibitory concentration (MIC) in [16] was 2.4 µM (≈ 6.27 µg/mL); in assay [17], 19.1 µM (≈ 49.9 µg/mL); in [18], 18.8 µM (≈ 49.1 µg/mL); in assay [19], 6.2 µM and > 3.1 µM.
`NC(=O)[C@H](Cc1ccccc1)NC(=O)[C@H](Cc1ccccc1)NC(=O)[C@@H](N)Cc1ccccc1` [FFF]: the minimum inhibitory concentration (MIC) against Staphylococcus aureus was above 1090 µM; against Streptococcus sanguinis it was at least 1090 µM.
Regarding `CC[C@H](C)[C@H](NC(=O)[C@H](C)NC(=O)[C@H](CCCN=C(N)N)NC(=O)[C@H](CCCCN)NC(=O)[C@H](C)NC(=O)[C@H](CCC(N)=O)NC(=O)[C@H](CC(C)C)NC(=O)[C@H](CCCCN)NC(=O)[C@H](Cc1ccccc1)NC(=O)[C@H](CC(C)C)NC(=O)[C@H](CCCCN)NC(=O)[C@H](Cc1ccccc1)NC(=O)[C@@H](NC(=O)[C@@H](NC(=O)[C@H](CCCCN)NC(=O)[C@H](C)NC(=O)[C@H](C)NC(=O)[C@@H](N)CCCCN)[C@@H](C)O)C(C)C)C(=O)N[C@@H](CCC(=O)O)C(=O)N[C@@H](C)C(N)=O` [KAAKTVFKLFKLQAKRAIEA], the minimum inhibitory concentration (MIC) in assay [20] was at least 128 µM; in assay [21], 128 µM (≈ 289 µg/mL); in assay [5] it was 128 µM (≈ 289 µg/mL); in assay [22], 128 µM (≈ 289 µg/mL).
On to `NC(N)=NCCC[C@H](NC(=O)[C@@H](N)CCCN=C(N)N)C(=O)N[C@@H](CCCN=C(N)N)C(=O)N1CCC[C@H]1C(=O)N[C@@H](CCCN=C(N)N)C(=O)N1CCC[C@H]1C(=O)N1CCC[C@H]1C(=O)N[C@@H](Cc1ccc(O)cc1)C(=O)N[C@@H](Cc1c[nH]c2ccccc12)C(=O)N1CCC[C@H]1C(=O)N[C@@H](CCCN=C(N)N)C(=O)N1CCC[C@H]1C(=O)N[C@@H](CCCN=C(N)N)C(=O)N1CCC[C@H]1C(=O)N1CCC[C@H]1C(=O)O` [RRRPRPPYWPRPRPP], for which the MIC in assay [23] was 16 µM (≈ 31.7 µg/mL); against Escherichia coli ML-35, 4 µM (≈ 7.94 µg/mL); in the assay on Escherichia coli D21 it was 2 µM (≈ 3.97 µg/mL); in [24] it was 8 µM (≈ 15.9 µg/mL); in [25], above 64 µM; in the assay with Bacillus megaterium Bm11, 16 µM (≈ 31.7 µg/mL).
In the case of `CC[C@H](C)[C@H](NC(=O)[C@H](CCCCN)NC(=O)[C@H](CCCCN)NC(=O)[C@@H](NC(=O)[C@H](C)NC(=O)[C@H](CCC(=O)O)NC(=O)[C@H](Cc1cnc[nH]1)NC(=O)[C@@H](NC(=O)[C@H](CCCCN)NC(=O)[C@H](CCC(N)=O)NC(=O)[C@H](Cc1ccccc1)NC(=O)[C@@H](NC(=O)[C@H](CCCCN)NC(=O)[C@H](CCCCN)NC(=O)[C@H](CC(C)C)NC(=O)[C@H](C)NC(=O)[C@H](CC(N)=O)NC(=O)[C@@H](N)CC(C)C)C(C)C)[C@@H](C)CC)[C@@H](C)CC)C(N)=O` [LNALKKVFQKIHEAIKKI], the MIC in [26] amounted to 4 µM (≈ 8.48 µg/mL); in [27], 2 µM (≈ 4.24 µg/mL); in [28], 4 µM (≈ 8.48 µg/mL); in assay [29], 4 µM (≈ 8.48 µg/mL); in [30], 4 µM (≈ 8.48 µg/mL); in assay [31] it was 2 µM (≈ 4.24 µg/mL). For the same compound, the minimum inhibitory concentration (MIC) in [32] and in assay [33] was 16 µM (≈ 33.9 µg/mL) in each case.

By MIC is commonly meant the lowest concentration that inhibits growth of the organism. Low readings indicate greater potency, high ones weaker potency.
